Assay results from patent publication US20210330678A1, “PAPD5 INHIBITORS AND METHODS OF USE THEREOF” (Children`s Medical Center Corporation, priority 2018, published 2021).
Entries after “also recorded” stand apart in the source; their conditions may differ.

Assays:
[1] = biological target: T1, recombinant PAPD5 (rPAPD5) (Homo sapiens, UniProt Q8NDF8); experiment: In vitro RNA oligo-adenylation / RNA oligonucleotide extension assay with recombinant PAPD5; assay type: biochemical
T1 construct: made in house
Experimental: An in vitro RNA polyadenylation assay using recombinant PAPD5, ATP and an oligonucleotide substrate utilized the following phenomenon: ATP utilization by PAPD5 reads out as a decreased luminescence signal produced by luciferase (KinaseGlo, Promega, Madison, Wis.).
0.25 μl of PAPD5 in a buffer composition at a concentration of 50 nM was added to a well of a microtitre plate (e.g., Product #3820; non-binding surface; Corning Incorporated, Corning, N.Y.) using a Thermo MultiDrop Combi (Thermo Fisher Scientific, Waltham, Mass.). For positive control (e.g., wells A24:P24 in a multi-well plate), 0.5 μl of mutant PAPD5 was added at a concentration of 50 nM.
100 nl of a compound dissolved in DMSO was transferred to each well of the assay plate via pin transfer. For negative control wells, DMSO alone was added. Plates were gently vortexed for 5 seconds, then incubated for 2 hours at room temperature.
After 2 hours, 5 μl of luciferase (Promega KinaseGlo, Madison, Wis.) was added using a MultiDrop Combi (Thermo Fisher Scientific, Waltham, Mass.). The mixture was gently vortexed for 5 seconds and incubated for 10 minutes at room temperature. Plates were spun for 1 minute prior to luminescence measurements. Luminescent measurements were quantitated using a PerkinElmer EnVision™ plate reader.
The fold-change for 100 μM compound and 33 μM compound were calculated. For certain compounds, fold-change at 10 μM, 3.3 μM, and 1 μM concentration was also determined. The fold change is a ratio of luminescence from a sample with inhibitor compared to that with DMSO (a higher number indicates higher inhibition).

PARN exonuclease = biological target: T2, PARN exonuclease (Homo sapiens, UniProt O95453); experiment: PARN exonuclease inhibition; assay type: biochemical; conditions: FIG. 10
T2 sequence (O95453 1-639): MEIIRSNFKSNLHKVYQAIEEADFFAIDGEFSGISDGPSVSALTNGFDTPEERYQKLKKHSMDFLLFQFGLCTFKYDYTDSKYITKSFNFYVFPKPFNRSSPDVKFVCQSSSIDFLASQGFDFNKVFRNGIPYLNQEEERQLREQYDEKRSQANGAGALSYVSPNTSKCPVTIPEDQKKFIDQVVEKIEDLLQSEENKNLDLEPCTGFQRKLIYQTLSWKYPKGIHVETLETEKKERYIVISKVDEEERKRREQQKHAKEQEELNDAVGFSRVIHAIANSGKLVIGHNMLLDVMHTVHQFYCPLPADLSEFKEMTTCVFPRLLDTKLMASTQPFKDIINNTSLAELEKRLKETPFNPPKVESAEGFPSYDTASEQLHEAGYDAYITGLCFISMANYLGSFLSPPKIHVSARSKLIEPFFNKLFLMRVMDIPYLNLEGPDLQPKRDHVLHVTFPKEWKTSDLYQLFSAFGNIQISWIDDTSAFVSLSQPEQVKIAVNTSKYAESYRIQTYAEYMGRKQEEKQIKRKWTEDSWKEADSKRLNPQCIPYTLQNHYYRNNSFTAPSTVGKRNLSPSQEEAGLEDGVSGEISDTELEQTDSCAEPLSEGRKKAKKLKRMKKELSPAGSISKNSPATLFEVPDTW

PAPD5 = biological target: T3, PAPD5 (Homo sapiens, UniProt Q8NDF8); conditions: yeast three hybrid; cited from earlier work
T3 construct: host or cells: yeast
T3 sequence (Q8NDF8 whole entry): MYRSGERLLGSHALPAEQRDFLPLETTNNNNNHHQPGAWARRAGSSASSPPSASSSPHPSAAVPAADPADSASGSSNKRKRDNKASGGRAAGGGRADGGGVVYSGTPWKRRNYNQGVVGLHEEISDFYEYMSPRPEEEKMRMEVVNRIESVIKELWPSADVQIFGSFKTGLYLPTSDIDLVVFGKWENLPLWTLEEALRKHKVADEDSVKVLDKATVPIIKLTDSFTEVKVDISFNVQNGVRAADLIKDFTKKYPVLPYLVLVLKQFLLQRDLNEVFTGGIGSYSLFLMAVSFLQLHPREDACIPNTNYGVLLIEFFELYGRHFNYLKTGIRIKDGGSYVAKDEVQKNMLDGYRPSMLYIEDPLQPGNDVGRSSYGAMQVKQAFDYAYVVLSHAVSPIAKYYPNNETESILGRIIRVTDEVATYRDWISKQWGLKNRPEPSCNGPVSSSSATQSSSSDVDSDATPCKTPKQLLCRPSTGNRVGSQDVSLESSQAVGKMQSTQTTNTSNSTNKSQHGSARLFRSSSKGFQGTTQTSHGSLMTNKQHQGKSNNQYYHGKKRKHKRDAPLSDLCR

T1 sequence (Q8NDF8 68-698 isoform Q8NDF8-5 limits assumed): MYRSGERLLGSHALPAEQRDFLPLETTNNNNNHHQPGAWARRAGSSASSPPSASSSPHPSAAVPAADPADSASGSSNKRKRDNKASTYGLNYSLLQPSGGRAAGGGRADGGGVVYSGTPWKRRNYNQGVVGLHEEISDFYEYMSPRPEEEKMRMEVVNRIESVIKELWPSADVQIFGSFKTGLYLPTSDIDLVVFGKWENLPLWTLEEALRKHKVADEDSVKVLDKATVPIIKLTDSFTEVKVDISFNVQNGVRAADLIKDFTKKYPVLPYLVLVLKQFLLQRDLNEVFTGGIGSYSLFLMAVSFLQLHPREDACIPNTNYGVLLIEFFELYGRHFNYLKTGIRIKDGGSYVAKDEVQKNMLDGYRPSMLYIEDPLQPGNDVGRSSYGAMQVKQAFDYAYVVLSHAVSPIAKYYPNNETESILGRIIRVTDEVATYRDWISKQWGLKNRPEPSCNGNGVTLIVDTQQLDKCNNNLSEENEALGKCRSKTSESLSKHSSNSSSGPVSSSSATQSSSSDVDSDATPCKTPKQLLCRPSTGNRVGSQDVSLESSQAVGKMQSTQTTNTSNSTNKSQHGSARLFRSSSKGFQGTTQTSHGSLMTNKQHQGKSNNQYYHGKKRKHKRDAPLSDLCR

COCCCOc1cc2c(cc1OC)-c1cc(=O)c(C(=O)O)cn1[C@H](C(C)C)C2 [DHQ-1, (S)-6-isopropyl-10-methoxy-9-(3-methoxypropoxy)-2-oxo-6,7-dihydro-2H-pyrido[2,1-a]isoquinoline-3-carboxylic acid]
rPAPD5 inhibition in vitro (RNA polyadenylation / RNA oligonucleotide extension) [1]: inhibits RNA polyadenylation in vitro; also recorded: rPAPD5 inhibition; also recorded: inhibiting rPAPD5-mediated RNA oligonucleotide extension | Inhibition of recombinant PAPD5 (rPAPD5): concentration range ([1]; FIG. 18a): low micromolar range | inhibition of PARN exonuclease (PARN exonuclease): do not inhibit | binding to PAPD5 (PAPD5): bind
